Measured values as given in article PMC10759609, “A novel PDPN antagonist peptide CY12-RP2 inhibits melanoma growth via Wnt/β-catenin and modulates the immune cells” (Journal of Experimental & Clinical Cancer Research : CR, 2024).
Peptide text beside a SMILES is read from it.

Legend:
Ki67 = Ki67 fluorescence staining of xenograft tumors; type: in vivo, BALB/c nude mice; conditions: A375 xenograft tumors
Experimental: Fig. S4: The inhibition of cells metastasis and invasion by CY12-RP2 can be […]
(A, B) The inhibition of CY12-RP2 on the migration capacity of melanoma cell lines was reversed by SKL2001 (A). Statistical analysis was performed to determine the migrated distance (B). The power field scale bar, 100 μm. (C, D) Effect of CY12-RP2 on the invasive ability of melanoma cell lines were reversed by SKL2001 (C).
Statistical analysis was performed to count the invaded cells (D). The power field scale bar, 100 μm. (E) Western blot assay was also performed to detect the proteins related to EMT and Wnt/β-catenin signaling pathway, including N-cadherin, Vimentin, snail, Dvl2, Phospho-β-catenin-S675, β-catenin, Phospho-GSK3β-Ser9 and GSK3β by CY12-RP2 with or without SKL2001 (50 μM). Data are presented as mean ± SD. *p < […]
Fig. S5: Effects and toxicity of CY12-RP2 in vivo
(A) TUNEL analysis of apoptosis was conducted on orthotopic xenografts tumor sections using fluorescence staining. The power field scale bar, 100 μm. (B) Fluorescence staining of Ki67 was carried out on orthotopic xenograft tumor sections.
The power field scale bar, 100 μm. (C) Serum His-CY12-RP2 levels of the orthotopic xenografts mice treated by various dosage of CY12-RP2 were measured by His-ELISA kit. […]
kit. (E) Serum ALT, AST, TG, and γ-GT levels of the orthotopic xenografts model were measured by ELISA. […]

A375 cells = test: Wound healing (migration), A375; type: cell-based; conditions: wound healing, 0, 5, 25 μM, 24 h or 48 h
Experimental: (§1) A375 GFP, A875 GFP, A375 PDPN^−/−, and A875 PDPN^+/+ cells were all seeded in 12-well plates at a density of 5 × 10^5 cells/well. When the cells reached 100% confluence the next day, the straight wound was scraped in each cultured well with a 20 µL pipette tip. Then the cells were washed repeatedly with complete DMEM to remove the cellular debris, and the medium was changed to a low serum medium containing 0.05% FBS. The scratch-treated cells were subsequently cultured for an additional indicated time and imaged at 0 h, 12 h, 24 h and 48 h. Quantification of wound closure was accomplished by measuring the distance between the phase contrast images’ anterior edges of the contralateral surfaces using ImageJ software. As for peptide (CY12-RP2) function experiments, images of phase contrast for A375 GFP and A875 GFP cells were captured at 0 h before peptide administration. The cells were then treated with CY12-RP2 (0 μM, 5 μM, 25 μM) for 24 h or 48 h, and then images were acquired again. Handling of the experimental results were carried out as previously described.

A875 cells [1] = test: Colony formation, A875; type: cell-based
[2] = test system: immune cells in spleen and lung; test: Flow cytometry of immune cells, spleen and lung, lung metastasis model; type: in vivo, BALB/c mice; conditions: lungs and spleens
Experimental: In this study, cell apoptosis was analyzed by flow cytometry using a PI/FITC-Annexin V Apoptosis Detection Kit (4A Biotech, Beijing, China). Briefly, melanoma cells were collected and washed with pre-chilled PBS, then resuspended with Annexin V staining buffer. Afterward, fluorescein isothiocyanate (FITC)-Annexin V and PI were stained for 5 min at RT, and then immediately detected using a Beckman flow cytometer. To investigate immune cell infiltration of the lung and spleen in the pulmonary metastasis mouse model, the surface and nuclear antigen staining were performed following the experimental procedure. Fluorescence-labeled mAb against CD3, CD25, CD49b, GranzymeB, CD11b, CD86, and CD206 were purchased from BioLegend (BioLegend, San Diego, CA), and CD4, CD8, and Foxp3 from Tonbo. Surface markers, including CD3, CD4, CD8, CD25, CD49b, GranzymeB, CD11b, CD86 and CD206, were firstly stained, then fixed, permeabilized, and stained for the intranuclear marker Foxp3, respectively. Finally, the samples were measured using flow cytometry.
For pulmonary metastasis assays, 6- to 8-week-old female BALB/c mice were administered with 5 × 10^5 B16F10-Luc cells via tail vein to establish an experimental pulmonary metastasis model of melanoma. CY12-RP2 was administered to the mice intravenously at high and low doses (25 mg/kg and 100 mg/kg) every two days, and the mice were sacrificed after 15 days of treatment. Pulmonary metastases were evaluated using bioluminescence imaging on the 2nd, 5th, 10th, 15th and 20th day after B16F10-Luc cells injection. Subsequently, the BALB/c mice were sacrificed, and the organs including the heart, liver, spleen, lung, and kidney were collected and imaged for evaluation of micrometastases. The xenografts and organs were kept in a 4% paraformaldehyde solution for subsequent histological assays.

A875 cells [3] = test: Wound healing (migration), A875; type: cell-based; conditions: wound healing, 0, 5, 25 μM, 24 h or 48 h
Experimental: as §1

PBMC = PBMC cytokines by ELISA; type: cell-based, healthy donor; conditions: 50 µM, 48 h
Experimental: PBMCs (Shenzhen People's Hospital. Shenzhen, China)) from a healthy donor were isolated using a density gradient centrifugation procedure. Firstly, the immune cell proportions analysis of PBMCs was measured using flow cytometry. We then investigated the effect of CY12-RP2 on the cytokines in PBMCs using ELISA assays. Briefly, PBMCs (5 × 10^5 cells/well) were cultured in 24-well plates with RPMI1640 containing 10% FBS for 24 h, and the cells were stimulated with CY12-RP2 (50 µM) for 48 h. Afterward, supernatants were collected for subsequent assays. […] The experimental results were then observed by crystal violet staining after 48 h. The levels of major inflammatory cytokines, including TNF-α, IL-1β, IL-2, TGF-β, IFN-γ, and IL-10, were measured using an ELISA kit (Shenzhen Ziker Biological Technology, Shenzen, China). Briefly, culture supernatants of cells and serum of pulmonary metastasis mouse model were respectively collected and added to an antibody pre-coated 96-well plates, and then followed up according to the manufacturer's instructions.

CC(C)C[C@H](NC(=O)[C@H](Cc1ccc(O)cc1)NC(=O)[C@@H](N)[C@@H](C)O)C(=O)N[C@@H](CS)C(=O)N[C@H](C(=O)N[C@@H](C)C(=O)N[C@@H](CS)C(=O)N[C@@H](CC(=O)O)C(=O)N[C@@H](Cc1ccc(O)cc1)C(=O)N[C@H](C(=O)N[C@@H](Cc1c[nH]cn1)C(=O)N[C@@H](Cc1c[nH]cn1)C(=O)O)[C@@H](C)O)[C@@H](C)O [CY12-RP2] (H-TYLCTACDYTHH-OH; N-terminus and C-terminus assumed)
level of Ki67 (Ki67): significantly decreased
migration (A375 cells): inhibited migration at the corresponding time both in A375 and A875 cells, but A375 cells were more susceptible
colony formation (A875 cells [1]): only having inhibitory effects on A875 cells at high concentrations
CD3 + CD4 + T cells ratio to total T cells [2]: significantly increased
CD3 + CD8 + T cells ratio to total T cells [2]: significantly increased
CD4 + CD25 + Foxp3 + Treg cells [2]: significantly diminished
CD11b + CD86 + M1-like macrophages proportion [2]: significantly increased
CD11b + CD206 + M2-like macrophages proportion [2]: decreased
CD49b + Granzyme B + NK cells proportion [2]: significantly increased
migration (A875 cells [3]): inhibited migration at the corresponding time both in A375 and A875 cells
IFN-γ level in PBMC supernatant (PBMC): increased
IL-1β level in PBMC supernatant (PBMC): increased
IL-10 level in PBMC supernatant (PBMC): decreased
TGF-β level in PBMC supernatant (PBMC): decreased
TNF-α level in PBMC supernatant (PBMC): increased
